The source made the active and inactive calls. The rule behind the calls is not given here.

Experimental findings from ChEMBL document CHEMBL5543153, “Discovery of a Potent Dual Son of Sevenless 1 (SOS1) and Epidermal Growth Factor Receptor (EGFR) Inhibitor for the Treatment of Prostate Cancer” (J Med Chem, 2024) are described below.

The subject of data set [1] is PC-3. The experiment in a line: Antiproliferative activity against human PC-3 cells assessed as reduction in EdU-positive cells at 0.5 to 12.5 uM incubated for 48 hrs by EdU incorporation assay. The class given is functional, cell-based. The following applies: dose 0.5-12.5 µM.
In data set [2] the test system is PC-3. The data set can be described thus: Induction of cell cycle arrest in human PC-3 cells assessed as accumulation of cells at S phase at 12.5 uM by PI staining based flow cytometry (reference value: 16.58%). The data set is classed as functional.
Data set [3] deals with PC-3. The data set can be described thus: Inhibition of colony formation in human PC-3 cells incubated for 15 days by crystal violet staining based microscopic analysis. The data set is classed as functional, cell-based. The following applies: time 15.0 day.
Data set [4] relates to PC-3. The experiment in a line: Induction of cell cycle arrest in human PC-3 cells assessed as accumulation of cells at G1 phase at 12.5 uM by PI staining based flow cytometry (reference value: 75.66%). The class given is functional.
The subject of data set [5] is PC-3. The experiment in a line: Antitumor activity against human PC-3 cells xenografted in BALB/c mouse assessed as reduction in tumor volume at 20 mg/kg,ip administrated once every 4 days for 24 days. The class given is functional, organism-based. The following applies: time 24.0 day.
The nature of data set [6]: Toxicity in BALB/c mouse xenografted with human PC-3 cells assessed as change in AST level at 5 mg/kg,ip administrated once every 4 days for 24 days by automatic biochemical analyzer. The note with it: in vivo, 576 h, time 24 day. The class given is organism-based.
Data set [7] can be described thus: Toxicity in BALB/c mouse xenografted with human PC-3 cells assessed as change in blood urea nitrogen level at 20 mg/kg,ip administrated once every 4 days for 24 days by automatic biochemical analyzer. The data set is classed as organism-based. The following applies: in vivo, 576 h, time 24 day.
A further data set relates to HUVEC. The experiment in a line: Antiangiogenic activity in HUVEC cells assessed as reduction of node at 0.5 to 12.5 uM incubated for 8 hrs by matrigel based microscopic analysis. The data set is classed as functional, cell-based. The note with it: Homo sapiens, dose 0.5-12.5 µM.
For data set [8], the system named is PC-3. The experiment in a line: Antitumor activity against human PC-3 cells xenografted in BALB/c mouse assessed as reduction in number of Ki67-positive cells in tumor tissue at ip administrated once every 4 days for 24 days by DAPI staining based immunohistochemical analysis. The note with it: time 24.0 day. The data set is classed as functional, organism-based.

A further data set concerns HepG2. The experiment in a line: Antiproliferative activity against human HepG2 cells assessed as inhibition of cell growth incubated for 72 hrs by MTT assay. The data set is classed as functional, cell-based.
Data set [9] can be described thus: Toxicity in BALB/c mouse xenografted with human PC-3 cells assessed as lung pathological change at 5 mg/kg,ip administrated once every 4 days for 24 days by hematoxylin and eosin staining based analysis. The following applies: in vivo, 576 h, time 24 day. The class given is organism-based.
For the next data set, the system named is A-427. The data set can be described thus: Antiproliferative activity against human A-427 cells harboring KRAS G12D mutant assessed as inhibition of cell growth incubated for 72 hrs by MTT assay. The note with it: A-427, 72 h. The data set is classed as functional, cell-based.
In data set [10] the test system is PC-3. The data set can be described thus: Induction of cell cycle arrest in human PC-3 cells assessed as downregulation of cyclin D1 expression by Western blotting analysis. The class given is functional, cell-based.
A short description of data set [11]: Toxicity in BALB/c mouse xenografted with human PC-3 cells assessed as liver pathological change at 20 mg/kg,ip administrated once every 4 days for 24 days by hematoxylin and eosin staining based analysis. The data set is classed as organism-based. The following applies: in vivo, 576 h, time 24 day.
In data set [12] the test system is PC-3. The experiment in a line: Induction of apoptosis in human PC-3 cells assessed as viable cells at 2.5 uM by Annexin V-FITC staining based flow cytometry (reference value: 94.9%). The class given is functional. The following applies: read-out: Activity.
The subject of data set [13] is PC-3. The experiment in a line: Induction of cell cycle arrest in human PC-3 cells assessed as accumulation of cells at S phase at 2.5 uM by PI staining based flow cytometry (reference value: 16.58%). The class given is functional.
The target of data set [14] is T1, Epidermal growth factor receptor (Homo sapiens, UniProt P00533). The data set can be described thus: Inhibition of EGFR (unknown origin) using ultra ULight GT peptide as substrate incubated for 2 hrs.
Data set [15] is described as follows: Toxicity in BALB/c mouse xenografted with human PC-3 cells assessed as change in creatinine level at 20 mg/kg,ip administrated once every 4 days for 24 days by automatic biochemical analyzer. The following applies: in vivo, 576 h, time 24 day. The class given is organism-based.
Data set [16] addresses T2, Son of sevenless homolog 1 (Homo sapiens) (UniProt Q07889).
T2 sequence (whole entry): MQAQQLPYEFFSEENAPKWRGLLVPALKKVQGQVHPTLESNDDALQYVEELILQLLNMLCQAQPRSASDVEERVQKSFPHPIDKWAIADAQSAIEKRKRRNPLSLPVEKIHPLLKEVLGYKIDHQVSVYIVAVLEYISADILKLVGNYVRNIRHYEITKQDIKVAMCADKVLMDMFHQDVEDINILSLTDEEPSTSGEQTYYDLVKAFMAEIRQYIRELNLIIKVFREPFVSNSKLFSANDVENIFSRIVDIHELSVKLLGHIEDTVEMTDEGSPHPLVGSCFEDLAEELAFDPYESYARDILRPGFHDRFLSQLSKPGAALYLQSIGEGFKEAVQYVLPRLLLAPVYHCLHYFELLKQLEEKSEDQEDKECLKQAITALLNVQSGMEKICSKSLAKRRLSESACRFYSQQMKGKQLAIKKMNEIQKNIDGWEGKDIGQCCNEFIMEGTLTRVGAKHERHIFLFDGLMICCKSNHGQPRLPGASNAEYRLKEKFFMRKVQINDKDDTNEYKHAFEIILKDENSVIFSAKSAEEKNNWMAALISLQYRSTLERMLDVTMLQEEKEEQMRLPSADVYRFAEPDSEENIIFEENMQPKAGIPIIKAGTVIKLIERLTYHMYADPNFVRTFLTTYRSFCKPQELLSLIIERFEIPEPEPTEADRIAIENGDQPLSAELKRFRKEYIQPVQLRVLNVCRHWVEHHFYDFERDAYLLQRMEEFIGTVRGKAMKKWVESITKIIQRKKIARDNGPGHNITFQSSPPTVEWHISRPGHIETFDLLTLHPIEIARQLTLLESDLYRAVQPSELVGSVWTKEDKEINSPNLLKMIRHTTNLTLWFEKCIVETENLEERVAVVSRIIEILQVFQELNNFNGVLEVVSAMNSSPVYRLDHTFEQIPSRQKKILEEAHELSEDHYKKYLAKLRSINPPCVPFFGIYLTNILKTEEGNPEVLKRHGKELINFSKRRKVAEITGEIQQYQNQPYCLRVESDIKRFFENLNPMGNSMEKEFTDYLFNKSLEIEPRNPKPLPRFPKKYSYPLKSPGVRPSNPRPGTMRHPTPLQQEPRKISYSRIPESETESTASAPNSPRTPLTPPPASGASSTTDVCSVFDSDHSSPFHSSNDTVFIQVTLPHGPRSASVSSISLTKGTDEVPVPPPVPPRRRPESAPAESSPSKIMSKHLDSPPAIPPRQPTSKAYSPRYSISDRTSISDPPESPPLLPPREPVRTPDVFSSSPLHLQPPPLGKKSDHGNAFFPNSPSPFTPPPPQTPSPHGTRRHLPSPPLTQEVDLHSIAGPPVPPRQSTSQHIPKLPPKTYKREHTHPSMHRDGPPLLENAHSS
The experiment in a line: Inhibition of SOS1 in human PC-3 cells assessed as downregulation of RAS-GTP expression at 12.5 uM incubated for 15 mins by Western blotting analysis. The class given is cell-based.

In data set [17] the target is T2, Son of sevenless homolog 1 (Homo sapiens). The data set can be described thus: Inhibition of SOS1 in human PC-3 cells assessed as downregulation of AKT phosphorylation at 0.5 uM incubated for 15 mins by Western blotting analysis. The data set is classed as cell-based.
Data set [18] has as its target T1, Epidermal growth factor receptor. The experiment in a line: Inhibition of EGFR (unknown origin) using ultra ULight GT peptide as substrate at 10 uM incubated for 2 hrs relative to control.

T1 sequence (P00533 whole entry): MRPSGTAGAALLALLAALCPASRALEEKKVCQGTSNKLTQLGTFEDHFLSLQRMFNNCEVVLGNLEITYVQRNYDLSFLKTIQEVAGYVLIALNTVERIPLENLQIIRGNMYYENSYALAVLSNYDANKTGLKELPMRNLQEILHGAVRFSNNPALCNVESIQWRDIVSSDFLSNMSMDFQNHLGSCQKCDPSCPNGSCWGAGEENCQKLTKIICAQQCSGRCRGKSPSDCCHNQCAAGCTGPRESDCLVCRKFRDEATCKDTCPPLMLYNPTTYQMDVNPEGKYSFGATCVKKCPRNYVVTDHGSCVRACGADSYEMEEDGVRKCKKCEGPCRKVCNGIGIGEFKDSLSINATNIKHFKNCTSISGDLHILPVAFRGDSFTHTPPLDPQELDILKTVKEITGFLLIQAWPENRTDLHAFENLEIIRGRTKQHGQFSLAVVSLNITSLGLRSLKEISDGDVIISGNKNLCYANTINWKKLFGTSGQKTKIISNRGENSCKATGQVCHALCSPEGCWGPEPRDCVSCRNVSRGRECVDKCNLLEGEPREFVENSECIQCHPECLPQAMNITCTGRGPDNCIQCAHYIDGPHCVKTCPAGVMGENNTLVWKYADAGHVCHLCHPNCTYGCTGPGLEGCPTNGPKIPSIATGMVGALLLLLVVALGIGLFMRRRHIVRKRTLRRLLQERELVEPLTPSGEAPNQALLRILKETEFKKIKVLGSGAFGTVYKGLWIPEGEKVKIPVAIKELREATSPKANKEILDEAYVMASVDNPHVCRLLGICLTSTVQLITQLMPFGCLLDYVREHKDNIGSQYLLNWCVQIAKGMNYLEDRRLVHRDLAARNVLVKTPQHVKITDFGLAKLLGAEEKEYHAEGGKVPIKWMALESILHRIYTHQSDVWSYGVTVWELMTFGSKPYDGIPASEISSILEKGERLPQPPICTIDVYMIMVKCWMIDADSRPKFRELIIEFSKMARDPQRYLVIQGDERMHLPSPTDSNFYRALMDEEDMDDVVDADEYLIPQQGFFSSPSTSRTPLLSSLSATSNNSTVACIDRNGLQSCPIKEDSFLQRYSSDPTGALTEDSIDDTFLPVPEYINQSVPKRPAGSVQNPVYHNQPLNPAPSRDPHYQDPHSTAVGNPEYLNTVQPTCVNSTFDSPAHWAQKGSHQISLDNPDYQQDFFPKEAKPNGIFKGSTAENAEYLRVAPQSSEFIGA

Take `COc1cc2ncnc(N[C@H](C)c3cccc(F)c3)c2cc1OC1CCOCC1`: the outcome with PC-3 [1], with PC-3 [5], in the data set on HUVEC and in the data set on HepG2 was Active. The Activity with PC-3 [2] is 6.67%; in the data set with PC-3 [4] it was 87.38%; in data set [6] it was “Non-Toxic”; in [7], “Non-Toxic”; in the data set on PC-3 [8] it was “Dose-Dependent Effect”; in [9] it was “Toxic”. Moreover, the Activity result was “Dose-Dependent Effect” with PC-3 [10], “Toxic” in data set [11], 5.5% in the data set with PC-3 [13] and “Non-Toxic” in data set [15]. Also, the inhibition result with PC-3 [3] is “Dose-Dependent Effect”; in [18] it was 100%. In addition, the IC50 in the data set on A-427 turned out to be 550 nM; in data set [14], 1.01 nM. The viability at 2.5 µM in the data set with PC-3 [12] was determined as 79.1%. Further, the inhibition result in data set [16] and in data set [17] was “Active” each time.
